This note sets out measurements from patent US10016382B2, “Method for decreasing skeletal muscle damage and/or oxidative stress in mammals” (LONZA INC., priority 2014, dated 2018).

This assay has as its system Labrador Retrievers. Nature of the assay: Time of final 15 mile endurance run, Example 1 (90 day study). The conditions noted are these: Ex.1, 250 mg/d; for Final run time: 15 mile run at end of 90 day study, mean ± SEM. It counts as in vivo, dog. How it is done:
Forty Labrador Retrievers were divided into two equal groups of twenty (11 males, 9 females) based on gender, body weight (“BW”), genetics, and lean mass and fed a low L-carnitine basal diet for a 90 day feeding period. The experimental dogs were fed the low L-carnitine basal for 10 days prior to the start of the study. Twenty of the Labs received 250 mg/day of L-carnitine (batch D22312) and 3.75 g of sugar and twenty of the Labs received 4 g/d of sugar. The dogs were scanned with a GE Prodigy DEXA system immediately prior to beginning of the study and the determined lean mass was utilized as a key component for helping assort the dogs equally between the control and L-carnitine group. A serum sample was obtained from each dog to determine a baseline value for blood biomarkers that were used to evaluate muscle damage and antioxidant status. The L-carnitine and control performance dogs were put through a weekly running program consisting of running sprint type shorter runs of higher intensity twice weekly (1200 yds/session increasing to 2400 yds/session over 10 wk period) and running endurance longer runs one time per wk (increasing from 5 miles/session to 10 miles per session over a 10 wk period). Each performance dog also wore the Actical activity monitor during the last endurance run. The dogs were put through a 15 mile run that included mud, water, tall grass, and swimming. The dogs were timed when they completed the course. The dogs were encouraged by kennel staff that rode along in a 4 wheel all terrain type vehicle during all of the endurance runs. […] Immediately following the 15 mile endurance run, each dog was placed in a kennel and evaluated for recovery time for body temperature (every 15 minutes for 2 hr) and heart rate (every 2 minutes for 14 minutes). Twenty four hours after test dogs ran the last 15 endurance run, post-run serum samples were taken to evaluate biomarkers for muscle damage and antioxidant status. Each test dog was also scanned with the GE Prodigy DEXA to determine body composition change that occurred during the course of the 13 wk study. Experimental Design: Forty Labrador Retrievers (labs) ranging in age from 1 to 3.5 years were incorporated into a two dietary treatment study. The two dietary treatments were based on feeding the test dogs the same low L-carnitine diet but adding 250 mg per day of L-carnitine to the L-carnitine group. Each of the L-carnitine dogs received the daily 250 mg of L-carnitine mixed with an additional 3.75 g sugar. The control dogs received 4 g of sugar each day. Twenty labs of equal gender, age, excitement level, frame size, body weight and genetic background were utilized for each of the two treatments. The labs utilized for the nutrition study were from a minimum of 6 different bitches. The lean body mass of the 40 test dogs was determined by scanning with the DEXA and the final key component utilized to assure equal groups. Prior to the start of the study, the labs were acclimated to the experimental diets for a minimum of 10 days. The labs were weighed at the beginning of the 90 day study and weighed every two weeks throughout the study. Feed consumption was determined daily by weighing feed provided and feed refusals. The quantity of food provided each dog on a daily basis was adjusted based on maintaining a minimum initial starting body weight throughout the study. […]

Values joined by “and” are separate entries in the source; they are usually repeats but may differ in a detail not shown here. Identical values can stand only once.

Turning to `C[N+](C)(C)C[C@H](O)CC(=O)[O-]` [L-carnitine], the Final run time reads like this: (both sexes) 95.84 min and 95.84 ± 1.417^A n = 19 min; (females) 98.50 ± 3.179 n = 8 min; (males) 93.91 ± 0.4564^A n = 11 min. In addition, the “15-mile timed run, minutes faster than control” value reads like this: (both sexes vs control dogs) 6.56 min; (males vs control males) 8.69 min.
